Tests used:
[1] = molecular target: T1, Mitogen-activated protein kinase kinase kinase 12 (Homo sapiens) (UniProt Q12852); assay: Selectivity interaction (KinomeScan (DiscoverX)) EUB0000666a MAP3K12; conditions: at 10 µM
T1 sequence (whole entry): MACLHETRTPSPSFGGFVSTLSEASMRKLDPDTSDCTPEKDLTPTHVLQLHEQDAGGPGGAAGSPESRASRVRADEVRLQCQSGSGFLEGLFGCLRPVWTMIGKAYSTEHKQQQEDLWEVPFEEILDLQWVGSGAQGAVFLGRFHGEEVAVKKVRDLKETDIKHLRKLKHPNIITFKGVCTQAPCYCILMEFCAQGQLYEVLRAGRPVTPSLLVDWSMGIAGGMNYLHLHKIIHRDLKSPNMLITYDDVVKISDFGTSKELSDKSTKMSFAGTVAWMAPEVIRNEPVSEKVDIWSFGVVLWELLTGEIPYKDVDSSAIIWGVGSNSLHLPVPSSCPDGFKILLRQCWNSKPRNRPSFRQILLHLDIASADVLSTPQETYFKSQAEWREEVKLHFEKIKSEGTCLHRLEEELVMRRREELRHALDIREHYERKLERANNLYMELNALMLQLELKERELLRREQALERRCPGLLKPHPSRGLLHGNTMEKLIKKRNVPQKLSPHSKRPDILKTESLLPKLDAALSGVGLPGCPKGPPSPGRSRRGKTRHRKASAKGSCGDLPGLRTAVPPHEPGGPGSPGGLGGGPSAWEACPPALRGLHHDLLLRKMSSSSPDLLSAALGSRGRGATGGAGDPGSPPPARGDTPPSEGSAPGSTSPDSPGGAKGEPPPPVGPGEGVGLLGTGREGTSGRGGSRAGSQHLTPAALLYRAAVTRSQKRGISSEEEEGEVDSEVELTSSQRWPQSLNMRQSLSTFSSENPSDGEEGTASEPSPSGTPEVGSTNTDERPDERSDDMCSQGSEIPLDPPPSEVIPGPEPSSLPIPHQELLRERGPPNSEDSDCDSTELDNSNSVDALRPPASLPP

[2] = molecular target: Ribosomal protein S6 kinase beta-1 (Homo sapiens, UniProt P23443); assay: Selectivity interaction (KinomeScan (DiscoverX)) EUB0000229b RPS6KB1; conditions: at 10 µM
[3] = molecular target: Serine/threonine-protein kinase pim-2 (Homo sapiens, UniProt Q9P1W9); assay: Selectivity interaction (KinomeScan (DiscoverX)) EUB0000595a PIM2; conditions: at 10 µM
[4] = molecular target: T2, Serine/threonine-protein kinase RIO1 (Homo sapiens) (UniProt Q9BRS2); assay: Selectivity interaction (KinomeScan (DiscoverX)) EUB0000655a RIOK1; conditions: at 10 µM
T2 sequence (whole entry): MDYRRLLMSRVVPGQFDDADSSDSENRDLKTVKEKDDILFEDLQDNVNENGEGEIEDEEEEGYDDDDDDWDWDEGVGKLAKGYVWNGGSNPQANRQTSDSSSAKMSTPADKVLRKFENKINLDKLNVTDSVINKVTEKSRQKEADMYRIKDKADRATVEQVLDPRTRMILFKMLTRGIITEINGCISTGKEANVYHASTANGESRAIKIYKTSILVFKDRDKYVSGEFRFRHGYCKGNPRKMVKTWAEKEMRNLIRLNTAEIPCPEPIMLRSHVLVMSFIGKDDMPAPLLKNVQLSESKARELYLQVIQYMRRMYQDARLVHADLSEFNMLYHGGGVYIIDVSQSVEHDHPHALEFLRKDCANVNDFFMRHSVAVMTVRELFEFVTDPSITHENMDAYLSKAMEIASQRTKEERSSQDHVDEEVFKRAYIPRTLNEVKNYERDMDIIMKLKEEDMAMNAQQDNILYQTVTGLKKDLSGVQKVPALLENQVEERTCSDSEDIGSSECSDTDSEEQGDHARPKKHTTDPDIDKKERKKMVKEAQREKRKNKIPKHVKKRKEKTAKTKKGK

[5] = system: Fibroblast growth factor receptor 3 (Homo sapiens), P22607 [G697C]; assay: (§1) Selectivity interaction (KinomeScan (DiscoverX)) EUB0000695a FGFR3; conditions: at 100 nM
[6] = molecular target: Fibroblast growth factor receptor 3 (Homo sapiens, UniProt P22607); assay: as §1; conditions: at 100 nM
[7] = molecular target: Insulin receptor (Homo sapiens, UniProt P06213); assay: Selectivity interaction (SelectScreen profiling (Invitrogen)) EUB0000607a INSR; conditions: at 2 µM
[8] = molecular target: T3, Phosphatidylinositol 4,5-bisphosphate 3-kinase catalytic subunit delta isoform (Homo sapiens) (UniProt O00329); assay: Selectivity interaction (ProQinase) EUB0000171b PIK3CD
T3 sequence (whole entry): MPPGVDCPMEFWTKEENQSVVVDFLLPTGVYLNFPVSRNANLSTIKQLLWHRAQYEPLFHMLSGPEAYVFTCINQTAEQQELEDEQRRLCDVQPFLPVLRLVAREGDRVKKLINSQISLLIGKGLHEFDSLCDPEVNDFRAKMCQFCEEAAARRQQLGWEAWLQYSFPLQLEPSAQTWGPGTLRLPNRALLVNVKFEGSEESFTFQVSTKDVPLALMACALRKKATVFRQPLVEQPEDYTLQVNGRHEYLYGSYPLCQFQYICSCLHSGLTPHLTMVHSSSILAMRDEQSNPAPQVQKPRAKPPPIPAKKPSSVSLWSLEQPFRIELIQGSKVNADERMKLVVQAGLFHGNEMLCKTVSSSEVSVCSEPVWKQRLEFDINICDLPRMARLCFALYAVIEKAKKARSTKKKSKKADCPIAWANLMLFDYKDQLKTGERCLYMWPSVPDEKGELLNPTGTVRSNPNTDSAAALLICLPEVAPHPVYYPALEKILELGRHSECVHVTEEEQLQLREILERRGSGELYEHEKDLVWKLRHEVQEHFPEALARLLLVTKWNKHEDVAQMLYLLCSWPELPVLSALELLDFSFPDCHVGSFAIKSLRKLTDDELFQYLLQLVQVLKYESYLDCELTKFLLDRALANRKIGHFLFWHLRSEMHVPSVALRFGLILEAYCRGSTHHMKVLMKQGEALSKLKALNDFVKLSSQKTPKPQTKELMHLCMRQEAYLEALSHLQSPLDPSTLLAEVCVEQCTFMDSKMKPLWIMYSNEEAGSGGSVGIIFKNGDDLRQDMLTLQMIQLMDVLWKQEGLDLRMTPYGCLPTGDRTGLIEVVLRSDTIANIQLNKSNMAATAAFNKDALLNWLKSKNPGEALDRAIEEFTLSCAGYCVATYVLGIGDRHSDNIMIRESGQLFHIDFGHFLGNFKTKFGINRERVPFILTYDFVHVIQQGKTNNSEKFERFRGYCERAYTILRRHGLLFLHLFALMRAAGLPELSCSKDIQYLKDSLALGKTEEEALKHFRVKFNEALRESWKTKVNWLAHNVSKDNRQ

Sequence of Fibroblast growth factor receptor 3 (Homo sapiens), P22607 [G697C] (P22607 whole entry G697C): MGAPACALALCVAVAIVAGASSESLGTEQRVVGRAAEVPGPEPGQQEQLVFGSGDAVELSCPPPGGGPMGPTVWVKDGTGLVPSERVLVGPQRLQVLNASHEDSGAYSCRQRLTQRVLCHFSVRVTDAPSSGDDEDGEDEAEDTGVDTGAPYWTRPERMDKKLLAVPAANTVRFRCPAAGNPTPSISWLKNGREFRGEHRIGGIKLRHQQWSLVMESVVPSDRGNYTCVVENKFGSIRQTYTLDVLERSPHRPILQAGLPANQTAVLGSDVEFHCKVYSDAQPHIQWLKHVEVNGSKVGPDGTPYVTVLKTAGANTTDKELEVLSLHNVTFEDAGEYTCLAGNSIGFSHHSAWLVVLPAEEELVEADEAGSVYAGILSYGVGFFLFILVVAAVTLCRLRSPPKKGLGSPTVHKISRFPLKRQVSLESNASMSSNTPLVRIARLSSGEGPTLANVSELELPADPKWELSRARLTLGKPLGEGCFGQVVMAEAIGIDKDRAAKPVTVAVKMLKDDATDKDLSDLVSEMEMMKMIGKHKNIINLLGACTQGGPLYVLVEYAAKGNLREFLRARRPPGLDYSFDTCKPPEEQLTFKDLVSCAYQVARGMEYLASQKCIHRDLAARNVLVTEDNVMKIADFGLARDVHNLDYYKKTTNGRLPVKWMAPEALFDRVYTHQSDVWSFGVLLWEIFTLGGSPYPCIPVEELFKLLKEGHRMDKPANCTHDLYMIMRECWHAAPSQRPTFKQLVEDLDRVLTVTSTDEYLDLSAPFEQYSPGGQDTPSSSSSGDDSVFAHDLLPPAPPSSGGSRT
Sequence of Fibroblast growth factor receptor 3 (P22607 23-806 limits assumed): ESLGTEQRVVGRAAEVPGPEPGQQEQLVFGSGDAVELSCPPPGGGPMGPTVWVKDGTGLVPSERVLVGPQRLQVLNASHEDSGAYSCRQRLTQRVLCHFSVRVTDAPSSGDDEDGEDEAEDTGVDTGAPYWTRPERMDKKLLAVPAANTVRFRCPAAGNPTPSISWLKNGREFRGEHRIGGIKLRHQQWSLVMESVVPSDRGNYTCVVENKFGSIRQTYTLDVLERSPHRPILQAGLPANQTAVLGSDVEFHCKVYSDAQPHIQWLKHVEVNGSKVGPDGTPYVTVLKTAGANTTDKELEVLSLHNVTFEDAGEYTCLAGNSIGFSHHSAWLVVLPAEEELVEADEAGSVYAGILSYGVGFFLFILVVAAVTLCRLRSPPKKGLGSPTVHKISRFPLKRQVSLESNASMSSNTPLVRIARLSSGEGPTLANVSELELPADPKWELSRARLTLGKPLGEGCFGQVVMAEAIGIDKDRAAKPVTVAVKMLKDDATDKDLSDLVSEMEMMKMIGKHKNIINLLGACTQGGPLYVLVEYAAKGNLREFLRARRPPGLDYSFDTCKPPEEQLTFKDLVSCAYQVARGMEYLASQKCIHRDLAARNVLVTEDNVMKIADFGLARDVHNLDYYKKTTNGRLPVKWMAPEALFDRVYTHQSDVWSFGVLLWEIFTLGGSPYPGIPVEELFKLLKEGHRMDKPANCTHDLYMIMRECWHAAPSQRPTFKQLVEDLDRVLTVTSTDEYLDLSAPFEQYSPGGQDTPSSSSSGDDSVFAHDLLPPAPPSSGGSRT
Sequence of Ribosomal protein S6 kinase beta-1 (P23443 whole entry, looked up): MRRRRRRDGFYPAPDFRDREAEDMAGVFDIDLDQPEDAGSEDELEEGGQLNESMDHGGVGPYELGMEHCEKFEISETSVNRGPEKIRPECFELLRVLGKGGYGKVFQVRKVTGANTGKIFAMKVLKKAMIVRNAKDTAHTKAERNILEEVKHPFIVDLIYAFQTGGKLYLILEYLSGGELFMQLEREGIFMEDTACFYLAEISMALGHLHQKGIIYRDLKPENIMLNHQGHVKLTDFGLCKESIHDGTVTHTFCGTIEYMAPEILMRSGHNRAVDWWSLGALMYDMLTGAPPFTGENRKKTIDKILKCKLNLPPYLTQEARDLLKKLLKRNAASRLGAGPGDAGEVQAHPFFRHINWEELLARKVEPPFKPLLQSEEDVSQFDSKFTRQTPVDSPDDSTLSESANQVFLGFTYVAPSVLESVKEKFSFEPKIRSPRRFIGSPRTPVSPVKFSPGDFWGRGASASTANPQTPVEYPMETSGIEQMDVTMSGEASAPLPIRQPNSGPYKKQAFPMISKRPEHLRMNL
Sequence of Serine/threonine-protein kinase pim-2 (Q9P1W9 whole entry, looked up): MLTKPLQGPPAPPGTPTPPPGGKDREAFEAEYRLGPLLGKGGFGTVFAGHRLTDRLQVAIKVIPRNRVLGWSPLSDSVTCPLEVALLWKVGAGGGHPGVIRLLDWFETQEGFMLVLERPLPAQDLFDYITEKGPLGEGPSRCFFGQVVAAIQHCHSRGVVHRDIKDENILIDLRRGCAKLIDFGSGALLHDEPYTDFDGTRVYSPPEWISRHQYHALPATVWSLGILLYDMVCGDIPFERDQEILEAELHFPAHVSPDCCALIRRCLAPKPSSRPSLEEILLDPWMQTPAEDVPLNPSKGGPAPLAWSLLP
Sequence of Insulin receptor (P06213 28-758 limits assumed): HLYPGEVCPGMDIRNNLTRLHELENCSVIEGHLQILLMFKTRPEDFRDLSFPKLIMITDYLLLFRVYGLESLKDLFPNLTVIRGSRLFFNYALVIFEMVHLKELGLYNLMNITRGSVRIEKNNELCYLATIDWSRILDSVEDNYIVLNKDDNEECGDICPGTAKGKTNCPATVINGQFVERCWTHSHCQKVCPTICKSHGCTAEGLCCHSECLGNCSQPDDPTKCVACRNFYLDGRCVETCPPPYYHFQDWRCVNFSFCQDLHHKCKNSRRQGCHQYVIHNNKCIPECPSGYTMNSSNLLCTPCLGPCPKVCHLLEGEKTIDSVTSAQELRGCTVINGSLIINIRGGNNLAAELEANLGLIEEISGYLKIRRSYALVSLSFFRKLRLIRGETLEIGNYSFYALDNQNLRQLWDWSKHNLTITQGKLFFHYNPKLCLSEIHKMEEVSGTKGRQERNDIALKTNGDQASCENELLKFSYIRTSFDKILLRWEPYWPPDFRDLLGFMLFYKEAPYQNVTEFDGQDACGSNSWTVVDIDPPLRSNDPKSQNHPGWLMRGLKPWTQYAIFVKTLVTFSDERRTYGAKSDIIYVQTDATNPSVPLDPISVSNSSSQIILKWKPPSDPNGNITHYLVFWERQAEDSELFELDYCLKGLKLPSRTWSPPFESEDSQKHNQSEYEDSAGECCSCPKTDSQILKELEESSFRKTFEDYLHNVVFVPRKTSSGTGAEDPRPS
Sequence of Insulin receptor (P06213 763-1382 limits assumed): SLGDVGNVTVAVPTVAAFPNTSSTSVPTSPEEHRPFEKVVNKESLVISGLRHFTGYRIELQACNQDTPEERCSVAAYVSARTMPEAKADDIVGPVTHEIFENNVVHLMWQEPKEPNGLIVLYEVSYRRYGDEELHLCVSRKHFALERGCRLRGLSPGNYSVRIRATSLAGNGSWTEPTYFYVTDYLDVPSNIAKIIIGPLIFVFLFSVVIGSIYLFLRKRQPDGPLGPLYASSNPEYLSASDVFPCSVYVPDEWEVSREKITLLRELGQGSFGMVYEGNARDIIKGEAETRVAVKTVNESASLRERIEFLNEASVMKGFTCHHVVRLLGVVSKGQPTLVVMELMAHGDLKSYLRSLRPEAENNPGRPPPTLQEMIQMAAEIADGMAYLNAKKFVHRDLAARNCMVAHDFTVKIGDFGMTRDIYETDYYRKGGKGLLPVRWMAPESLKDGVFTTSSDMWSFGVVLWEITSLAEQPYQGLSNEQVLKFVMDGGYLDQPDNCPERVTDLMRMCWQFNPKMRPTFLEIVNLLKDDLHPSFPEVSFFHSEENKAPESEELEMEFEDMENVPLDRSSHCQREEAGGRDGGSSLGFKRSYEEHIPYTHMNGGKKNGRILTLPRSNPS

O=C(NOC[C@H](O)CO)c1ccc(F)c(F)c1Nc1ccc(I)cc1F
% of control [1]: 78%

COc1cc(N(C)c2ccnc3ccc(C(F)(F)F)cc23)cc(OC)c1OC
% binding [2]: 71%

COCC(=O)NC/C=C/c1ccc2ncnc(Nc3ccc(Oc4ccc(C)nc4)c(C)c3)c2c1 [CP-724714]
% of control [3]: 100%

CN(C)CCOc1ccc(-c2nc(-c3ccncc3)c(-c3ccc4c(c3)CC/C4=N\O)[nH]2)cc1
% of control [4]: 97%

Cc1cc(F)c(C(=O)Nc2cccc(-c3nncn3C(C)C)n2)cc1-n1cnc(C2CC2)c1
% of control [5]: 88%
% of control [6]: 93%

CNC(=O)Nc1ccc(-c2nc(N3CC4CCC(C3)O4)c3cnn(C4CCC5(CC4)OCCO5)c3n2)cc1
% of inhibition [7]: 4%

C=CC(=O)Nc1cccc(C(=O)Nc2ccc(Nc3cc(-c4[nH]c(SC)nc4C)ccn3)cc2)c1
% of control ([8]; at 1 µM): 119%
% of control ([8]; at 5 µM): 113%
